Entries after “also recorded” stand apart in the source; their conditions may differ. Where no end group is shown, it is not given here.
Experiments:
Candida albicans = type: cell-based; details: for activity against C. albicans: in vitro killing efficacy; for activity against fluconazole resistant isolates: isolates A-5 and A-20; for activity against fluconazole sensitive isolates: isolates A-155, A-22 and A-111, 400 μg/ml; for killing of blood isolate of Candida: blood isolate of C. albicans, 400 μg/ml (150 μM); for peptide concentration required for activity: fluconazole resistant isolate A-46; for activity at the lower concentration: fluconazole resistant isolates A-5 and A-20, 200 μg/ml or 75 μM; for fungicidal or fungistatic effect: isolates A-5, A-20, A-46 and A-155, viable colony counts versus starting inoculum
Experimental: (§1) Isolates used in this study included Candida albicans (ATCC 28367), three fluconazole sensitive mucosal isolates of C. albicans, designated A-22, A-111 and A-155, three fluconazole resistant mucosal isolates of C. albicans designated A-46, A-5, and A-20, and a blood isolate of C. albicans designated WDO. Isolates were stored frozen at −70° C. and streaked onto Sabouraud Dextrose Agar (Sigma, St. Louis, Mo.) plates and maintained on plates at 4° C., with subculturing onto new plates approximately every 10 days for the duration of the studies. Fluconazole resistance was evaluated. Three clinical isolates of C. glabrata, two clinical isolates of C. dubliniensis, and single isolate each of C. krusei, C. guilliermondii, C. parapsilosis, C. pseudotropicalis and C. tropicalis and two isolates of Saccharomyces cerevisiae were also used in this study and were maintained on Sabouraud Dextrose agar plates at 4° C. A single yeast colony was cultured overnight at 33° C. in 1% phytone peptone broth (Becton Dickinson, Sparks Md.) with 0.1% D-glucose (Sigma).
Stock solutions of all peptides were made up at concentrations of 1 mg/ml in sterile endotoxin-free water for irrigation (Baxter, Deerfield, Ill.). Subsequent dilutions were all made in tryptone saline pH 5.5 (Shafer et al., Infect Immun, 1984). An aliquot (100 μl) of an overnight culture of a single colony grown at 33° C. in 1% phytone peptone broth with 0.1% glucose was subcultured in 5 ml of 1% phytone peptone broth with 0.1% glucose and incubated in a shaking water bath (80 oscillations per min, Precision, Winchester, Va.) for 90 min at 33° C. to yield a logarithmic culture. […] The optical density was read and the culture adjusted to 500 blastospores/100 μl in tryptone saline pH 5.5 (Shafer et al., Infect Immun, 1984). To 100 μl of the organism suspension in a 96 well sterile polystyrene microtiter plate (Becton Dickinson, Franklin Lakes, N.J.) was added 100 μl of the peptide (final concentrations 400 μg/ml and 200 μg/ml) or 100 μl of tryptone saline. The latter served as a control. The microtiter plate was incubated at 37° C. for 4 hr and 100 μl of the contents from each well was plated on Sabouraud Dextrose agar plates and incubated at 37° C. overnight. The colony forming units (cfu) were counted and the fungicidal activity was expressed as percent killed and calculated according to the following equation: [(control cfu−test cfu)/control cfu]×100=% killed. Control cfu is indicated by the number of colonies present after […] of incubation in tryptone saline alone in the absence of peptide. Test cfu is determined by counting the number of colonies present after incubation in tryptone saline containing the peptide. Each experimental point was performed in triplicate.
C. albicans (ATCC 28367) was used to standardize the in vitro killing assay. We explored the optimal growth conditions (temperature and time, 25° C. for 5 h and 33° C. for 90 min), numbers of blastospores per well (200, 400, 500, 600, 800, and 1000 cfu), range of peptide concentrations (750, 500, 400, 200 and 100 μg/ml) and the contact time between peptide and Candida (1, 2 and 4 hr) for killing to occur. […] The 90 minute incubation was more convenient technically and was therefore employed routinely. The optimum numbers of cfu per well was determined to be 500 and an incubation time of 4 hr at 37° C. between Candida and peptide was required to obtain optimal killing.

C. guilliermondii = test: In vitro candidacidal assay, C. guilliermondii; type: cell-based; details: 100 μg/ml (37.5 μM)
Experimental: (§2) Isolates used in this study included Candida albicans (ATCC 28367), three fluconazole sensitive mucosal isolates of C. albicans, designated A-22, A-111 and A-155, three fluconazole resistant mucosal isolates of C. albicans designated A-46, A-5, and A-20, and a blood isolate of C. albicans designated WDO. Isolates were stored frozen at −70° C. and streaked onto Sabouraud Dextrose Agar (Sigma, St. Louis, Mo.) plates and maintained on plates at 4° C., with subculturing onto new plates approximately every 10 days for the duration of the studies. Fluconazole resistance was evaluated. […]
(§3) Stock solutions of all peptides were made up at concentrations of 1 mg/ml in sterile endotoxin-free water for irrigation (Baxter, Deerfield, Ill.). […] The optical density was read and the culture adjusted to 500 blastospores/100 μl in tryptone saline pH 5.5 (Shafer et al., Infect Immun, 1984). […] The colony forming units (cfu) were counted and the fungicidal activity was expressed as percent killed and calculated according to the following equation: [(control cfu−test cfu)/control cfu]×100=% killed. […] Test cfu is determined by counting the number of colonies present after incubation in tryptone saline containing the peptide. […]

C. parapsilosis = test: In vitro candidacidal assay, C. parapsilosis; type: cell-based; details: 100 μg/ml (37.5 μM)
Experimental: as §2, §3

C. pseudotropicalis = test: In vitro candidacidal assay, C. pseudotropicalis; type: cell-based; details: 400 μg/ml (150 μM)
Experimental: as §2, §3

[1] = test system: C. albicans (fluconazole sensitive isolate); test: FUN-1 vital dye yeast viability, confocal microscopy, C. albicans; type: cell-based, Candida albicans; details: 400 μg/ml, 37° C. for 2 hr
Experimental: (§4) Yeast viability was also assessed using the FUN-1 Live/Dead Yeast Viability Kit (Molecular Probes, Eugene, Oreg.). The methodology employed was essentially according to the protocol provided by the vendor for use with fluorescent microscopy. Briefly, yeast cultures were prepared exactly as stated above. C. glabrata, C. pseudotropicalis, C. albicans (fluconazole sensitive isolate) and S. cerevisiae (5×10^5 cfu in 100 μl of tryptone saline) were incubated (37° C. for 2 hr) in the absence or presence of peptide (CAP37(20-44)nat and CAP37(20-44)ser26/42) at a final concentration of 400 μg/ml. At the end of the incubation period, the samples were transferred to microcentrifuge tubes and centrifuged (10,000×g for 3 min at room temperature). The supernatant was removed and the pellet resuspended in 25 μl of GH solution (2% D-glucose containing 10 mM Na-HEPES, pH 7.2) as described in the technical data sheet provided by the vendor. A working solution of the FUN-1 reagent (100 μl of 10 μM) was prepared from 10 mM stock solution and 25 μl (final concentration 5 μM) added to the yeast and incubated at room temperature for 30 min. A sample (10 μl) was placed on a microscope slide and staining observed under a Leica TCS NT confocal microscope using Ar-488 and Kr-568 Lasers and 63x Plan APO 1.2 NA water immersion objective. Images were scanned and analyzed using the Leica TCS software.

C. glabrata [2] = test: FUN-1 vital dye yeast viability, confocal microscopy, C. glabrata; type: cell-based; details: 400 μg/ml, 37° C. for 2 hr
Experimental: as §4

S. cerevisiae = test: FUN-1 vital dye yeast viability, confocal microscopy, S. cerevisiae; type: cell-based, Saccharomyces cerevisiae; details: 400 μg/ml, 37° C. for 2 hr
Experimental: as §4

[3] = test system: Salmonella typhimurium, Escherichia coli, and Pseudomonas aeruginosa; details: Gram negative organisms; cited from earlier work
[4] = test system: hyphal forms of Candida albicans; test: In vitro candidacidal assay on hyphal forms of C. albicans; type: cell-based; details: clinical isolates; 400 and 200 μg/ml
Experimental: To induce hyphal formation a single colony of C. albicans isolates A-5, A-20, A-22, A-46, A-11 and A-155 from a Sabouraud Dextrose agar plate was transferred to 1% phytone peptone broth with 0.1 glucose and grown overnight at 33° C. An aliquot (500 μl) of the overnight culture was subcultured in 5 ml of RPMI-1640 (Celigro Mediatech Inc, Herndon, Va.)) with 10% fetal calf serum (Invitrogen, Grand Island, N.Y.) for 90 min at 37° C. Hyphal formation was determined under phase microscopy.
as §3, with “Ill.). Subsequent dilutions were all made in tryptone saline pH 5.5 (Shafer et al., Infect Immun, 1984).” for “Ill.).”

C. tropicalis = test: In vitro candidacidal assay, C. tropicalis; type: cell-based; details: 400 μg/ml (150 μM)
Experimental: as §1
as §3, with “Ill.). Subsequent dilutions were all made in tryptone saline pH 5.5 (Shafer et al., Infect Immun, 1984).” for “Ill.).”

C. dubliniensis = test: In vitro candidacidal assay, C. dubliniensis; type: cell-based; details: two isolates; 400 μg/ml (150 μM)
Experimental: as §1
as §3, with “Ill.). Subsequent dilutions were all made in tryptone saline pH 5.5 (Shafer et al., Infect Immun, 1984).” for “Ill.).”

C. glabrata [5] = test: In vitro candidacidal assay, C. glabrata; type: cell-based; details: one isolate of three; 400 μg/ml (150 μM)
Experimental: as §1
as §3, with “Ill.). Subsequent dilutions were all made in tryptone saline pH 5.5 (Shafer et al., Infect Immun, 1984).” for “Ill.).”

Candida = details: peptides isolated from human platelets; cited from earlier work

NQGRHFSGGALIHARFVMTAASSFQ (NQGRHFSGGALIHARFVMTAASSFQ; listed as Homo sapiens) [CAP37(20-44)ser26/42, cysteines at positions 26 and 42 replaced by serine]
activity against C. albicans (Candida albicans): significantly abrogated activity
activity against fluconazole resistant isolates (Candida albicans): moderately active
activity against fluconazole sensitive isolates (Candida albicans): lack of activity
activity against C. guilliermondii (C. guilliermondii): some activity
activity against C. parapsilosis (C. parapsilosis): some activity
activity against C. pseudotropicalis (C. pseudotropicalis): some activity
blastoconidia alive [1]: 30%
cell viability (C. glabrata [2]): virtually all cells were viable
cell viability (S. cerevisiae): virtually all cells were viable
bactericidal activity [3]: inactive compound

NQGRHFCGGALIHARFVMTAASSFQ [CAP37(20-44)ser42, NQGRHFCGGALIHARFVMTAASSFQ]
killing (Candida albicans): > 75%
killing of blood isolate of Candida (Candida albicans): killed
peptide concentration required for activity (Candida albicans): 400 µg/mL
activity at the lower concentration (Candida albicans): significant activity
activity against C. albicans (Candida albicans): significant activity
fungicidal or fungistatic effect (Candida albicans): fungicidal rather than fungistatic
activity against fluconazole resistant isolates (Candida albicans): highly active
activity against fluconazole sensitive isolates (Candida albicans): strongly active
activity on hyphal forms of C. albicans [4]: greater activity
activity against C. tropicalis (C. tropicalis): killed
activity against C. dubliniensis (C. dubliniensis): more effective against C. dubliniensis than CAP37(20-44)nat; also recorded: effective against both isolates of C. dubliniensis and one isolate of C. glabrata, although to a lesser extent
activity against C. glabrata (C. glabrata [5]): effective against both isolates of C. dubliniensis and one isolate of C. glabrata, although to a lesser extent

NQGRHFSGGALIHARFVMTAASCFQ [CAP37(20-44)ser26, NQGRHFSGGALIHARFVMTAASCFQ]
killing (Candida albicans): > 75%
killing of blood isolate of Candida (Candida albicans): killed
peptide concentration required for activity (Candida albicans): 400 µg/mL
activity at the lower concentration (Candida albicans): significant activity
activity against C. albicans (Candida albicans): significant activity
fungicidal or fungistatic effect (Candida albicans): fungicidal rather than fungistatic
activity against fluconazole resistant isolates (Candida albicans): highly active
activity against fluconazole sensitive isolates (Candida albicans): strongly active
activity against C. tropicalis (C. tropicalis): killed
activity against C. dubliniensis (C. dubliniensis): effective against both isolates of C. dubliniensis and one isolate of C. glabrata, although to a lesser extent
activity against C. glabrata (C. glabrata [5]): effective against both isolates of C. dubliniensis and one isolate of C. glabrata, although to a lesser extent

B1: PF-4: platelet factor-4, isolated from human platelets (protein, UniProt P02776 32-101, looked up)
Platelet factor 4: EAEEDGDLQCLCVKTTSQVRPRHITSLEVIKAGPHCPTAQLIATLKNGRKICLDLQAPLYKKIIKKLLES
candidacidal activity (Candida): exhibited candidacidal activity

B2: CAP37: cationic antimicrobial protein of Mr 37 kDa of the human neutrophil (protein)
chain: IVGGRKARPRQFPFLASIQNQGRHFCGGALIHARFVMTAASCFQSQNPGVSTVVLGAYDLRRRERQSRQTFSISSMSENGYDPQQNLNDLMLLQLDREANLTSSVTILPLPLQNATVEAGTRCQVAGWGSQRSGGRLSRFPRFVNVTVTPEDQCRPNNVCTGVLTRRGGICNGDGGTPLVCEGLAHGVASFSLGPCGRGPDFFTRVALFRDWIDGVLNNPGP
bactericidal activity [3]: strong bactericidal activity

B3: RANTES: Regulated upon Activation Normal T cell Expressed and Secreted protein, isolated from human platelets (protein, UniProt P13501 24-91, looked up)
C-C motif chemokine 5: SPYSSDTTPCCFAYIARPLPRAHIKEYFYTSGKCSNPAVVFVTRKNRQVCANPEKKWVREYINSLEMS
candidacidal activity (Candida): exhibited candidacidal activity
